What was measured:
[1] = molecular target: T1, Solute carrier family 15 member 1 (Oryctolagus cuniculus, UniProt P36836); assay: Inhibition of [3H]-D-Phe-L-Gln uptake at rabbit PepT1 expressed in Xenopus laevis oocytes at pH 5.5 measured after 1 hr by scintillation counting method; type: cell-based
T1 sequence (P36836 whole entry): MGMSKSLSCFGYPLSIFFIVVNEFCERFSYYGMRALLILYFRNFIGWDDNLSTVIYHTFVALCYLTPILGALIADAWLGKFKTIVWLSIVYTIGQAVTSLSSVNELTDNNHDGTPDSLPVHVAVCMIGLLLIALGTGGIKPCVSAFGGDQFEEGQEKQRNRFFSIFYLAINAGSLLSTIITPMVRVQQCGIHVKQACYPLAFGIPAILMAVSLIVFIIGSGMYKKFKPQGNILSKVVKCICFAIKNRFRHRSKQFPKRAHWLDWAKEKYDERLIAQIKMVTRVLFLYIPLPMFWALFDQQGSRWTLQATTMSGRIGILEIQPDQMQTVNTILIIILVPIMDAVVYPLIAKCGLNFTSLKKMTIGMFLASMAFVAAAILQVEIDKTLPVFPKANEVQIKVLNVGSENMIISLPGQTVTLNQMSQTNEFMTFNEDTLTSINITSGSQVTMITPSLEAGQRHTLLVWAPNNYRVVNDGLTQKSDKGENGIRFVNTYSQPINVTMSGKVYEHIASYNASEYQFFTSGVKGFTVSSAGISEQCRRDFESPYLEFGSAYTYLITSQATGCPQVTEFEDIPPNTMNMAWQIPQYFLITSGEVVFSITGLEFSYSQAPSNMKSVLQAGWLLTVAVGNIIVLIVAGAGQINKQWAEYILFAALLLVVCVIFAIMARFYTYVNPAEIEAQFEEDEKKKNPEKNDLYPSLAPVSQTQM

[2] = molecular target: T1, Solute carrier family 15 member 1; assay: Substrate activity at rabbit PepT1 expressed in Xenopus laevis oocytes assessed as drug transportation across membrane under holding potential at -30 mV at 2 mM by two electrode voltage-clamp method; type: ADME, cell-based; details: 2000 µM

Ki [1]: 1.11 mM
Activity [2]: 322 nA
Compound: C/C=C/C[C@H](C)[C@@H](OC(=O)CNC(=O)C[C@@H](NC(=S)[C@H](C)N)C(=O)O)[C@@H]1C(=O)N[C@@H](CC)C(=O)N(C)CC(=O)N(C)[C@H](CC(C)C)C(=O)N[C@H](C(C)C)C(=O)N(C)[C@H](CC(C)C)C(=O)N[C@H](C)C(=O)N[C@H](C)C(=O)N(C)[C@H](CC(C)C)C(=O)N(C)[C@H](CC(C)C)C(=O)N(C)[C@H](C(C)C)C(=O)N1C
